Where two headings read alike, the source gives them in different places.
How the values were obtained:
[1] = biological target: T1, menin.FITC-MBM1 complex (terbium chelate-labeled menin) (Homo sapiens, UniProt O00255, F410E/T541A); assay: Menin/MLL homogenous time-resolved fluorescence (HTRF) assay; format: binding
T1 construct: Menin (a.a. 1-610-6×his tag) was labeled with terbium cryptate as follows
T1 sequence (O00255 with tags, fused parts or gaps F410E/T541A): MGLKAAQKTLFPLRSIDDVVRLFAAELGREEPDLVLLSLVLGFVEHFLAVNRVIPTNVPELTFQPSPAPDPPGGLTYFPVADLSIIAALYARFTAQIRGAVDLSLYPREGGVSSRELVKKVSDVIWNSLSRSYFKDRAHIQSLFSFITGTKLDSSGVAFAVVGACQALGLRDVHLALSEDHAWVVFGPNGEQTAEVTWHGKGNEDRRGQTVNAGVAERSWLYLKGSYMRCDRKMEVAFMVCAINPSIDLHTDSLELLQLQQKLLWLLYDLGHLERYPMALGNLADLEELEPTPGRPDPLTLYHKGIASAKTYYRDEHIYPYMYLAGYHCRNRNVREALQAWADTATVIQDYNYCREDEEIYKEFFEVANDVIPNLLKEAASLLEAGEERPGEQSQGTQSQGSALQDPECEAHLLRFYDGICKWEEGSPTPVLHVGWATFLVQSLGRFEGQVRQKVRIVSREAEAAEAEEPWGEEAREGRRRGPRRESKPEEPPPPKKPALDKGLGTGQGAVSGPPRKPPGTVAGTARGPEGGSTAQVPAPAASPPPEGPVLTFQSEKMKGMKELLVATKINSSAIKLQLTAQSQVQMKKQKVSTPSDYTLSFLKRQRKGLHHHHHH
Protocol: 2) Menin/MLL Homogenous Time-Resolved Fluorescence (HTRF) Assay
To an untreated, white 384-well microtiter plate was added 40 nL 200× test compound in DMSO and 4 μL 2× terbium chelate-labeled menin (vide infra for preparation) in assay buffer (40 mM Tris.HCl, pH 7.5, 50 mM NaCl, 1 mM DTT and 0.05% Plutonic F-127). After incubation of test compound and terbium chelate-labeled menin for 5 min at ambient temperature, 4 μL2× FITC-MBM1 peptide (FITC-β-alanine-[…]-NH2) in assay buffer was added, the microtiter plate centrifuged at 1000 rpm for 1 min and the assay mixtures incubated for 15 min at ambient temperature. The relative amount of menin.FITC-MBM1 complex present in an assay mixture is determined by measuring the homogenous time-resolved fluorescence (HTRF) of the terbium/FITC donor/acceptor fluorphore pair using a BMG Pherastar plate reader (ex. 337 nm/terbium em. 490 nm/FITC em. 520 nm) at ambient temperature. The degree of fluorescence resonance energy transfer (the HTRF value) is expressed as the ratio of the fluorescence emission intensities of the FITC and terbium fluorophores (F^em 520 nm/F^em 490 nm). The final concentrations of reagents in the binding assay are 100 pM terbium chelate-labeled menin (location 1) or 600 pM terbium chelate-labeled menin (location 2), 75 nM FITC-MBM1 peptide and 0.5% DMSO in assay buffer. Dose-response titrations of test compounds are conducted using an 11 point, three-fold serial dilution scheme, starting typically at 25 μM (location 1) or starting typically at 10 μM (location 2).
Compound potencies were determined by first calculating % inhibition at each compound concentration according to equation 1:
% inhibition=((HC−LC)−(HTRF^compound−LC))/(HC−LC))*100 (Eqn 1)
Where LC and HC are the HTRF values of the assay in the presence or absence of a saturating concentration of a compound that competes with FITC-MBM1 for binding to menin, and HTRF^compound is the measured HTRF value in the presence of the test compound. HC and LC HTRF values represent an average of at least 16 replicates per plate.
% inhibition=Bottom+(Top−Bottom)/(1+10^((log IC50−log [cmpd])*h)) (Eqn 2)
Where Bottom and Top are the lower and upper asymptotes of the dose-response curve, respectively, IC50 is the concentration of compound that yields 50% inhibition of signal and h is the Hill coefficient.
Preparation of Terbium cryptate labeling of Menin: Menin (a.a. 1-610-6×his tag) was labeled with terbium cryptate as follows. 2 mg of Menin was buffer exchanged into 1× phosphate buffered saline. 16 uM Menin was incubated with 4-fold molar excess NHS-terbium cryptate (Cisbio Bioassays, Bedford, Mass.) for 2 hours at room temperature. The labeled protein was purified away from free label by running the reaction over a Superdex 200 Increase 10/300 GL column at 0.75 ml/min. Peak fractions were collected, aliquoted and frozen at −80° C.

MV-4-11 cells [2] = assay: Proliferation assay A (spheroid assay) MV-4-11; format: cell-based; settings: Homo sapiens, MV4-11, 192 h, 8 d, AUC of confluence against time, absolute IC50, read-out: (3a) Spheroid assay MV-4-11 (IC50(μM)) Assay A
Protocol: (§1) 3a) Proliferation Assay A
(§2) The anti-proliferative effect of menin/MLL protein/protein interaction inhibitor test compounds was assessed in human leukemia cell lines. The cell lines MV-4-11 and MOLM14 harbor MLL translocations and express the MLL fusion proteins MLL-AF4 and MLL-AF9, respectively, as well as the wildtype protein from the second allele. […] K562 was used as a control cell line containing two MLL wildtype alleles in order to exclude compounds that display general cytotoxic effects.
(§3) MV-4-11 and MOLM14 were cultured in RPMI-1640 (Sigma Aldrich) supplemented with 10% fetal bovine serum (HyClone), 2 mM L-glutamine (Sigma Aldrich) and 50 μg/ml gentamycin (Gibco). K562 were propagated in RPMI-1640 (Sigma Aldrich) supplemented with 20% fetal bovine serum (HyClone), 2 mM L-glutamine (Sigma Aldrich) and 50 μg/ml gentamycin (Gibco).
(§4) In order to assess the anti-proliferative effects, 1,500 MV-4-11, 300 MOLM14 or 750 K562 cells were seeded in 200 μl media per well in 96-well round bottom, ultra-low attachment plates (Costar, catalogue number 7007). Cell seeding numbers were chosen based on growth curves to ensure linear growth throughout the experiment. Test compounds were added at different concentrations and the DMSO content was normalized to 0.3%. Cells were incubated for 8 d at 37° C. and 5% CO2. Spheroid like growth was monitored in real-time by live-cell imaging (IncuCyteZOOM, Essenbio, 4× objective) acquiring one image every four hours for 8 d. Confluence (%) as a measure of spheroid size was determined using an integrated analysis tool.
(§5) In order to determine the cumulative effect of the test compounds over time, the area under the curve (AUC) in a plot of confluence against time was calculated. Confluence at the beginning of the experiment (t=0) was used as baseline for the AUC calculation.
(§6) Absolute IC50 values were calculated according to the following procedure:
(§7) % Control=(AUC sample/AUC control)*100
(§8) AUC control=mean AUC of control values (cells without compound/DMSO as vehicle control)
(§9) A non-linear curve fit was applied using the least squares (ordinary) fit method to the plot of % control versus compound concentration. Based on this, the absolute IC50 value (half maximal inhibitory concentration of the test compound causing an anti-proliferative effect of 50% relative to the vehicle control) was calculated.

MOLM14 cells [3] = assay: Proliferation assay A (spheroid assay) MOLM14; format: cell-based; settings: Homo sapiens, MOLM-14, 192 h, 8 d, AUC of confluence against time, absolute IC50, read-out: (3a) Spheroid assay MOLM14 (IC50(μM)) Assay A
Protocol: as §1, §2, §3, §4, §5, §6, §7, §8, §9

MV-4-11 cells [4] = assay: Proliferation assay B (spheroid assay) MV-4-11; format: cell-based; settings: Homo sapiens, MV4-11, 192 h, confluence at day 8, read-out: (3b) Spheroid assay MV-4-11 (IC50(μM)) Assay B
Protocol: (§10) 3b) Proliferation Assay B
as §2
MV-4-11 and MOLM14 were cultured in RPMI-1640 (Sigma Aldrich) supplemented with 10% fetal bovine serum (HyClone), 2 mM L-glutamine (Sigma Aldrich) and 50 μg/ml gentamycin (Gibco). […]
In order to assess the anti-proliferative effects, 1,500 MV-4-11, 300 MOLM14 cells or 750 K562 cells were seeded in 200 μl media per well in 96-well round bottom, ultra-low attachment plates (Costar, catalogue number 7007). […] Spheroid like growth was measured in real-time by live-cell imaging (IncuCyteZOOM, Essenbio, 4× objective) acquiring images at day 8. Confluence (%) as a measure of spheroid size was determined using an integrated analysis tool.
In order to determine the effect of the test compounds over time, the confluence in each well as a measure of spheroid size, was calculated. […]
Absolute IC50 values were calculated as percent change in confluence as follows: […]

MOLM14 cells [5] = assay: Proliferation assay B (spheroid assay) MOLM14; format: cell-based, human; settings: Homo sapiens, MOLM-14, 192 h, confluence at day 8, read-out: (3b) Spheroid assay MOLM14 (IC50(μM)) Assay B
Protocol: as §10, §2, §3
as §4, with “MOLM14 cells” for “MOLM14”, “measured” for “monitored”, “images at day 8.” for “one image every four hours for 8 d.”
In order to determine the effect of the test compounds over time, the confluence in each well as a measure of spheroid size, was calculated. Confluence […] at the beginning of the experiment (t=0) was used as baseline for the calculation.
Absolute IC50 values were calculated as percent change in confluence as follows:
LC=Low Control: cells treated with 1 μM of the cytotoxic agent staurosporin
HC=High Control: Mean confluence (%) (DMSO treated cells)
Effect=100−(100*(Sample−LC)/(HC−LC))
To determine the IC50 a curve is fitted to the plot of % Effect vs Log 10 compound concentration using a sigmoidal fit with a variable slope and fixing the maximum to 100% and the minimum to 0%.

[6] = location 1, read-out: (2) location 1 Menin HTRF assay (IC50 (nM))
[7] = location 2, read-out: (2) location 2 Menin HTRF assay (IC50 (nM))

Compound	IC50 [1, 6] [nM]	IC50 (MV-4-11 cells [2]) [µM]	IC50 (MOLM14 cells [3]) [µM]	IC50 [1, 7] [nM]	IC50 (MV-4-11 cells [4]) [µM]	IC50 (MOLM14 cells [5]) [µM]
FC(F)(F)Cc1cc2c(N3CC4(CCC(NCc5ccccc5)C4)C3)ncnc2s1 (single isomer, unassigned) [Compound 46]	22	0.31	1.87			
FC(F)(F)Cc1cc2c(N3CC4(CC[C@H](NCc5ccccc5)C4)C3)ncnc2s1 [Compound 45]	20.4	0.41	2.36			
N#CCn1c(=O)[nH]c2cc(CNC3CCC4(C3)CN(c3ncnc5sc(CC(F)(F)F)cc35)C4)ccc21 (stereo not shown) [Compound 99]				1.1	0.03	0.19
O=c1[nH]c2ccc(CN[C@H]3CCC4(C3)CN(c3ncnc5sc(CC(F)(F)F)cc35)C4)cc2o1 (single isomer, unassigned) [Compound 56]		0.45	2	5.1		
FC(F)(F)Cc1cc2c(N3CCC4(CCC(Nc5ccc(-c6cc[nH]n6)cc5)C4)C3)ncnc2s1 (stereo not shown) [Compound 138]		3.92	> 3.75	8.8		
O=c1[nH]c2cc(CN[C@H]3CCC4(C3)CN(c3ncnc5sc(CC(F)(F)F)cc35)C4)ccc2o1 (single isomer, unassigned) [Compound 58]			0.14			
